Several values for one entry are separate records, joined by “and”; a condition that tells them apart may be missing. Equal entries are not always repeated.
Key:
[1] = tested on: macrophages, interleukins and other acute phase proteins; conditions: e.g. patients with malignant tumors; dose range of 10 to 1000 mg; cited from earlier work
neutrophils = assay: neutrophil phagocytosis in vitro; assay type: cell-based, human; conditions: for Phagocytic Index, Study Group / Phagocytic number, Study Group: individual samples
Method: For evaluating the effect of the preparation on phagocytosis in vitro, blood sample was collected from donor's cubital vein in a test tube containing heparin at a dose of 10 units per ml of blood. 0.8 ml of 3% gelatin prepared based on Medium 199 were added to 2 ml of blood. The test tubes were incubated in a thermostat at 37° C. for 20 minutes. Then the supernatant containing cells was aspirated to a centrifuge tube. Cells were twice washed with Medium 199 with centrifuging at 1,000 rpm. 1 ml of Medium 199 was added to the sediment and neutrophils were counted in Goryaev's chamber. Then, cellular suspension containing 2·10^6 neutrophils in 1 ml was prepared based on Medium 199. Simultaneously, suspension of St. aureus in a concentration of 20·10^6/ml was prepared. After preliminary opsonization with an equal volume of pooled human plasma in a thermostat at 37° C. for 20 minutes, the Staphylococcus suspension was centrifuged and washed with Medium 199. The preparation in 200, 20 and 2 μg/ml concentrations was added to mixture of equal volumes of neutrophils and staphylococci; Medium 199 was added to control test tubes. After incubation in a thermostat at 37° C. for 30 minutes, the test tubes where centrifuged, and preparations were prepared in accordance with the procedure described above. Phagocytic index and phagocytic number for study group were compared with the same for control group.

phagocytic cells = assay: phagocytosis in vivo (peritoneal neutrophils and macrophages, St. aureus); design: species or system Strain C57BL6 mice
Method: Intraperitoneal injection of 3 ml of 3% peptone was made, and 2 hours later the animals were killed with chloroform. The mice were autopsied in aseptic conditions. Liquid was aspirated from abdominal cavity with a Pasteur's pipette and transferred to centrifuge test tubes; then centrifuging was carried out for 10 minutes at 1,000 rpm. […] Similar volume of Strain 1991 St. aureus was added to cells in a proportion of 1:10 proportion and incubated at 37° C. for 30 minutes. After incubation, smears were prepared on slides, fixed in methanol for 20 minutes and processed with Romanovsky-Giemsa's stain for 30 minutes. For evaluating the phagocytic activity of macrophages, the animals were tested on the third day after administration of peptone. Further testing was carried out similarly with that of neutrophils. The results were evaluated using a microscope at a magnification of 90×. Phagocytic index and phagocytic number were determined.

[2] = clinical study, treatment of acute intestinal infections (AII); assay type: in vivo, human
Method: Efficacy of the preparation in decreasing the gravity of manifestations of various forms of AII was evaluated in accordance with the used program of study with aid of a three-point scale.
After the study was finished, general evaluation of clinical efficacy and safety of the preparation based on a 4-point scale, depending on nosologic forms, was carried out.

[3] = third dose group, dose cell empty
[4] = Acute gastroenteritis, 4 patients
[5] = Alimentary toxoinfection, 4 patients

For `Nn1[n-]c(=O)c2ccccc2c1=O.O.O.[Na+]` [sodium salt of 2-amino-1,2,3,4-tetrahydrophthalazine-1,4-dione, dihydrate], the “effect in patients with weak cellular immunity reactions” value [1] is listed as “activation of macrophages, interleukins and other acute phase proteins”.

For `Nc1cccc2c(=O)[nH][nH]c(=O)c12.[K]` [potassium salt of 5-amino-2,3-dihydrophthalazine-1,4-dione], the “Phagocytic Index, Study Group, Mean” value (neutrophils; dose 20 μg) was 7.8 ± 0.04, the “Phagocytic number, Study Group, Mean” value (neutrophils; dose 20 μg) was 89 ± 1.25 and the “Phagocytic Index, Study Group” value (neutrophils; dose 20 μg) was 3.9 and 2.8 and 4.6 and 6.8 and 13.2 and 9.1 and 16.3 and 5.2. The “Phagocytic number, Study Group” value (neutrophils; dose 20 μg) was 80 and 96 (2×) and 88 and 94 and 84 (2×) and 86, the “Phagocytic Index, Study Group, Mean” value (neutrophils; dose 200 μg) was 6.0 ± 0.04 and the “Phagocytic number, Study Group, Mean” value (neutrophils; dose 200 μg) was 77 ± 0.26. The “Phagocytic Index, Study Group” value (neutrophils; dose 200 μg) was 5.6 and 4.7 and 9.1 and 6.4 and 7.4, the “Phagocytic number, Study Group” value (neutrophils; dose 200 μg) was 78 and 85 and 84 and 71 and 67 and the “ability of neutrophils population to intake microbial cells” value (neutrophils; doses of 20 and 2 μg) was “statistically significant increase”. The “effect on digestive activity of neutrophils” value (neutrophils; doses of 20 and 2 μg) was “practically no effect”, the “Phagocytic Index, Study Group, Mean” value (neutrophils; [3]) was 6.0 ± 0.16 and the “Phagocytic number, Study Group, Mean” value (neutrophils; [3]) was 86 ± 0.32. For the same compound, the “Phagocytic Index, Study Group” value (neutrophils; [3]) was 6.4 (2×) and 4.5 and 7.4 and 5.6, the “Phagocytic number, Study Group” value (neutrophils; [3]) was 88 and 92 (2×) and 78 and 84 and the “stimulating effect on phagocytic cells / phagocytic activity in vivo” value (phagocytic cells; dose 200 μg) was “no stimulating effect”. The “ability of phagocytic cells to intake microbial cells” value (phagocytic cells; doses of 2 ug and 20 ug) was “statistically significant increase”, the “phagocytic activity of macrophages in mice” value (phagocytic cells; doses ranging from 200 to 2 μg) was “stimulating effects” and the “patients with "excellent" or "good" effect” value ([2]; 20 patients with various forms of AII) was 90 % of patients. The “Efficacy of the preparation: Excellent (number of patients)” value (shortened to “Efficacy of the preparation: Excellent”) ([2]; Acute dysentery, 9 patients) was 1, the “Efficacy of the preparation: Good (number of patients)” value (from here on “Efficacy of the preparation: Good”) ([2]; Acute dysentery, 9 patients) was 7 and the “Efficacy of the preparation: Satisfactory (number of patients)” value ([2]; Acute dysentery, 9 patients) was 1. For the same compound, the “Efficacy of the preparation: Excellent” value [2, 4] was 2, the “Efficacy of the preparation: Good” value [2, 4] was 1 and the “Efficacy of the preparation: Satisfactory (number of patients)” value [2, 4] was 1. The “Efficacy of the preparation: Excellent” value [2, 5] was 1, the “Efficacy of the preparation: Good” value [2, 5] was 3 and the “Efficacy of the preparation: Excellent” value ([2]; Salmonellosis, 3 patients) was 1. For the same compound, the “Efficacy of the preparation: Good” value ([2]; Salmonellosis, 3 patients) was 2, the “Efficacy of the preparation: Excellent” value ([2]; Total, 20 patients) was 5 and the “Efficacy of the preparation: Good” value ([2]; Total, 20 patients) was 13. The “Efficacy of the preparation: Satisfactory (number of patients)” value ([2]; Total, 20 patients) was 2, the “patients in whom the intoxication syndrome resolved within 1 to 3 days ("complete decrease")” value ([2]; of 20 patients) was 19 patients and the “patients with "insignificant decrease" in the first days and "complete decrease" by the 5th day of treatment” value ([2]; of 20 patients) was “one”. For the same compound, the “patients with "excellent" or "good" effect” value ([2]; of 20 patients with various forms of AII) was 18 patients.
